According to patent US20240398812A1 (Caraway Therapeutics, Inc., priority 2021, published 2024):

How the values were obtained:
Type in all cases: cell-based
human TRPML1 = human TRPML1 (Homo sapiens, UniProt Q9GZU1); assay: Fluorescent TRPML1 assay (Fluo4-AM calcium fluorescence, HEK-293 Trex cells)
Summary of the method: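 Tet-inducible HEK-293 Trex cells stably expressing surface-targeted mutant human TRPML1, induced with 0.5 ug/mL doxycycline overnight, loaded with Fluo4-AM and suspended in Ringer's with 10 mM calcium. Compounds tested from 20 μM to 6 nM final, half-log steps, in triplicate; fluorescence (ex 480/em 540) normalised to plate controls, EC50 by non-linear regression.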

TRPML2 = target: T1, TRPML2 (Homo sapiens, UniProt Q8IZK6); assay: Fluorescent TRPML2 assay (as for TRPML1)
T1 construct: expressed in transfected cells
T1 sequence (Q8IZK6 1-566): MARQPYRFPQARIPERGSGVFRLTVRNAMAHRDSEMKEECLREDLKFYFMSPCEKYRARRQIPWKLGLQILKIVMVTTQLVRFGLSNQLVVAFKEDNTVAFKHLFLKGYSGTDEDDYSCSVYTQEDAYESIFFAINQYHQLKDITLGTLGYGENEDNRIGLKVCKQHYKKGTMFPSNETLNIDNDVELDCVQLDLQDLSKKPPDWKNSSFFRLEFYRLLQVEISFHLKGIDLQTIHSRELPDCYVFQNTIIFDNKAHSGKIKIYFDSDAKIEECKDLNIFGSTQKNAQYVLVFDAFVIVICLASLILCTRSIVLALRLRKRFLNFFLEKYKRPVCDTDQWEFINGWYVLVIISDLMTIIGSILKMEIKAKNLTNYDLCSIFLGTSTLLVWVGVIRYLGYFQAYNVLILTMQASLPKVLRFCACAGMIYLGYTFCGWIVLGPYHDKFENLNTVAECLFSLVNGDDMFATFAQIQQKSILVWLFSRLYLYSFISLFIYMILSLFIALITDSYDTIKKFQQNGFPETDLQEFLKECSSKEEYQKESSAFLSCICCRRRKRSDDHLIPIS
Summary of the method: (§1)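 HEK-293 Trex cells with tet-inducible (0.5 ug/mL doxycycline, overnight) surface-targeted mutant channel, Fluo4-AM loaded, suspended in Ringer's with 10 mM calcium. Compounds tested 20 µM to 6 nM final, half-log steps, triplicate; fluorescence at ex 480/em 540 nm. EC50 by non-linear regression of percent activity versus plate controls.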

TRPML3 = target: T2, TRPML3 (Homo sapiens, UniProt Q8TDD5); assay: Fluorescent TRPML3 assay (as for TRPML1)
T2 construct: expressed in transfected cells
T2 sequence (Q8TDD5 1-553): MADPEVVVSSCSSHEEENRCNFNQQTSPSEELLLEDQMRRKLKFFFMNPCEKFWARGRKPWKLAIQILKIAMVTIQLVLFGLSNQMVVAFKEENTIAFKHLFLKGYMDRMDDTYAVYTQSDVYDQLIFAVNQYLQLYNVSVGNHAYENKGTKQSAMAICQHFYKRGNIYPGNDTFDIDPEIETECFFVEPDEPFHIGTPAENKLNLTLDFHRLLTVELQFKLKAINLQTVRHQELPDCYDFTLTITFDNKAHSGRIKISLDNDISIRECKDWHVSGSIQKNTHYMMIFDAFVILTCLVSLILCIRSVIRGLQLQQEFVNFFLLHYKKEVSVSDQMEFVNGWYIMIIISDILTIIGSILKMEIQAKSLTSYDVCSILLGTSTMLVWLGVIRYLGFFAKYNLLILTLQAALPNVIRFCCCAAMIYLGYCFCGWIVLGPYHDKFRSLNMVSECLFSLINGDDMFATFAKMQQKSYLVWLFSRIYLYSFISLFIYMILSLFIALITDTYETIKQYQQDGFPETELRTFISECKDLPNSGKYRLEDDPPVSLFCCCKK
Summary of the method: as §1

human TRPML1, sequence (Q9GZU1 whole entry L15A/L16A/L577A/L578A, form open): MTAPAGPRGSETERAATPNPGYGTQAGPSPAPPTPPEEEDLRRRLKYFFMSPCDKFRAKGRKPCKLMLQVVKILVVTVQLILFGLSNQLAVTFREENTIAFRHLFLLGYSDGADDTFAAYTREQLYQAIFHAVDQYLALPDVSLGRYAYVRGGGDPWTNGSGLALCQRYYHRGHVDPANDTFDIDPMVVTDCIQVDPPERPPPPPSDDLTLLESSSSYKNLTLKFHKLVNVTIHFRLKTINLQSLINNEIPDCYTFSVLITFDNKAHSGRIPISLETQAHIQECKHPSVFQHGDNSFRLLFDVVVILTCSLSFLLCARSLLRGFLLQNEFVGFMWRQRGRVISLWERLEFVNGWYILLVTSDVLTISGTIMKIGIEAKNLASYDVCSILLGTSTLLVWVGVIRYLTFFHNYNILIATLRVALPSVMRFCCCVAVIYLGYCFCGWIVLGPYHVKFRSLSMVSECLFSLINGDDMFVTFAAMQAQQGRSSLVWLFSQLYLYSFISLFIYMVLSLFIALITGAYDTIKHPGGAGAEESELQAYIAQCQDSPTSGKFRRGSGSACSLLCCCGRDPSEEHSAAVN

| SMILES | EC50 (human TRPML1; Table 3, compounds 101-177) [nM] | EC50 (TRPML2; Table 3, compounds 101-177) [nM] | EC50 (TRPML3; Table 3, compounds 101-177) [nM] | EC50 (human TRPML1; Table 3, compounds 201-283) [nM] | EC50 (TRPML2; Table 3, compounds 201-283) [nM] | EC50 (TRPML3; Table 3, compounds 201-283) [nM] |
| --- | --- | --- | --- | --- | --- | --- |
| C[C@@H]1CN(c2ncnc3c2c(C2CC2)cn3-c2cc(C#N)ccn2)[C@@H](C)CN1C(=O)CC(C)(C)C [Compound 153, 2-(5-cyclopropyl-4-((2S,5R)-4-(3,3-dimethylbutanoyl)-2,5-dimethylpiperazin-1-yl)-7H-pyrrolo[2,3-d]pyrimidin-7-yl)isonicotinonitrile] | < 100 | 500 to 2000 | < 100 |  |  |  |
| C[C@@H]1CN(c2ncnc3c2c(C2CCC2)cn3-c2cc(C#N)ccn2)[C@@H](C)CN1C(=O)CC(C)(C)C(F)(F)F [Compound 239, 2-(5-cyclobutyl-4-((2S,5R)-2,5-dimethyl-4-(4,4,4-trifluoro-3,3-dimethylbutanoyl)piperazin-1-yl)-7H-pyrrolo[2,3-d]pyrimidin-7-yl)isonicotinonitrile] |  |  |  | < 100 | 500 to 2000 | < 100 |
| C[C@H]1CN(C(=O)C(C)(C)C)CCN1c1ncnc2c1c(C1CC1)cn2-c1cc(C#N)ccn1 [Compound 104, (S)-2-(5-cyclopropyl-4-(2-methyl-4-pivaloylpiperazin-1-yl)-7H-pyrrolo[2,3-d]pyrimidin-7-yl)isonicotinonitrile] | < 100 | 500 to 2000 | < 100 |  |  |  |
| C[C@@H]1CN(c2ncnc3c2c(C2CCC2)cn3-c2cc(C#N)ccn2)[C@@H](C)CN1C(=O)C(C)(C)C(F)(F)F [Compound 240, 2-(5-cyclobutyl-4-((2S,5R)-2,5-dimethyl-4-(3,3,3-trifluoro-2,2-dimethylpropanoyl)piperazin-1-yl)-7H-pyrrolo[2,3-d]pyrimidin-7-yl)isonicotinonitrile] |  |  |  | 100 to 500 | 100 to 500 | < 100 |
| C[C@@H]1CN(c2ncnc3c2c(C2CCC2)cn3-c2cccc(F)c2)[C@@H](C)CN1C(=O)C(C)(C)C(F)(F)F [Compound 252, 1-((2R,5S)-4-(5-cyclobutyl-7-(3-fluorophenyl)-7H-pyrrolo[2,3-d]pyrimidin-4-yl)-2,5-dimethylpiperazin-1-yl)-3,3,3-trifluoro-2,2-dimethylpropan-1-one] |  |  |  | 100 to 500 | 500 to 2000 | 100 to 500 |
| C[C@@H]1CN(c2ncnc3c2c(C2CCC2)cn3-c2cccc(C(F)(F)F)c2)[C@@H](C)CN1C(=O)C1(F)CC1 [Compound 260, ((2R,5S)-4-(5-cyclobutyl-7-(3-(trifluoromethyl)phenyl)-7H-pyrrolo[2,3-d]pyrimidin-4-yl)-2,5-dimethylpiperazin-1-yl)(1-fluorocyclopropyl)methanone] |  |  |  | 100 to 500 | > 2000 | 500 to 2000 |
| COC(C)(C)C(=O)N1C[C@H](C)N(c2ncnc3c2c(N2CCC2)cn3-c2cc(C#N)ccn2)C[C@H]1C [Compound 268, 2-(5-(azetidin-1-yl)-4-((2S,5R)-4-(2-methoxy-2-methylpropanoyl)-2,5-dimethylpiperazin-1-yl)-7H-pyrrolo[2,3-d]pyrimidin-7-yl)isonicotinonitrile] |  |  |  | < 100 | 500 to 2000 | < 100 |
| Cc1nccnc1-c1cn(-c2cc(C#N)ccn2)c2ncnc(N3C[C@@H](C)N(C(=O)CC(C)C)C[C@@H]3C)c12 [Compound 173, 2-(4-((2S,5R)-2,5-dimethyl-4-(3-methylbutanoyl)piperazin-1-yl)-5-(3-methylpyrazin-2-yl)-7H-pyrrolo[2,3-d]pyrimidin-7-yl)isonicotinonitrile] | 100 to 500 | > 2000 | > 2000 |  |  |  |
| C[C@@H]1CN(c2ncnc3c2c(-c2ccccc2F)cn3-c2cc(F)ccn2)[C@@H](C)CN1C(=O)C1(F)CC1 [Compound 247, (1-fluorocyclopropyl)((2R,5S)-4-(5-(2-fluorophenyl)-7-(4-fluoropyridin-2-yl)-7H-pyrrolo[2,3-d]pyrimidin-4-yl)-2,5-dimethylpiperazin-1-yl)methanone] |  |  |  | < 100 | 500 to 2000 | 500 to 2000 |
| C[C@H]1CN(C(=O)[C@@H](F)C(C)(C)C)CCN1c1ncnc2c1c(C1CC1)cn2-c1cc(C#N)ccn1 (single isomer, unassigned) [Compound 203] |  |  |  | < 100 | < 100 | < 100 |
| C[C@@H]1CN(c2ncnc3c2c(N2CCC2)cn3-c2cc(C#N)ccn2)CCN1C(=O)C(C)(C)C [Compound 271, (R)-2-(5-(azetidin-1-yl)-4-(3-methyl-4-pivaloylpiperazin-1-yl)-7H-pyrrolo[2,3-d]pyrimidin-7-yl)isonicotinonitrile] |  |  |  | < 100 | < 100 | < 100 |
| C[C@@H]1CN(c2ncnc3c2c(C(F)(F)F)cn3-c2cccc(Cl)c2)[C@@H](C)CN1C(=O)C(C)(C)C [Compound 204, 1-((2R,5S)-4-(7-(3-chlorophenyl)-5-(trifluoromethyl)-7H-pyrrolo[2,3-d]pyrimidin-4-yl)-2,5-dimethylpiperazin-1-yl)-2,2-dimethylpropan-1-one] |  |  |  | < 100 | 100 to 500 | < 100 |
| C[C@@H]1CN(c2ncnc3c2c(C2CCC2)cn3-c2cc(F)cc(F)c2)[C@@H](C)CN1C(=O)C(C)(C)C(F)(F)F [Compound 259, 1-((2R,5S)-4-(5-cyclobutyl-7-(3,5-difluorophenyl)-7H-pyrrolo[2,3-d]pyrimidin-4-yl)-2,5-dimethylpiperazin-1-yl)-3,3,3-trifluoro-2,2-dimethylpropan-1-one] |  |  |  | 100 to 500 | 500 to 2000 | 100 to 500 |
| COC(C)(C)C(=O)N1CCN(c2ncnc3c2c(N2CCC2)cn3-c2cc(C#N)ccn2)C[C@H]1C [Compound 269, (R)-2-(5-(azetidin-1-yl)-4-(4-(2-methoxy-2-methylpropanoyl)-3-methylpiperazin-1-yl)-7H-pyrrolo[2,3-d]pyrimidin-7-yl)isonicotinonitrile] |  |  |  | < 100 | < 100 | < 100 |
| C[C@@H]1CN(c2ncnc3c2c(C(F)(F)F)cn3-c2cc(C#N)ccn2)[C@@H](C)CN1C(=O)C(C)(C)C [Compound 207, 2-(4-((2S,5R)-2,5-dimethyl-4-pivaloylpiperazin-1-yl)-5-(trifluoromethyl)-7H-pyrrolo[2,3-d]pyrimidin-7-yl)isonicotinonitrile] |  |  |  | < 100 | 100 to 500 | < 100 |
| CCCN(CC)c1cn(-c2cc(C#N)ccn2)c2ncnc(N3CCN(C(=O)CC(C)(C)C)C[C@@H]3C)c12 [Compound 166, (S)-2-(4-(4-(3,3-dimethylbutanoyl)-2-methylpiperazin-1-yl)-5-(ethyl(propyl)amino)-7H-pyrrolo [2,3-d]pyrimidin-7-yl)isonicotinonitrile] | < 100 | 100 to 500 | < 100 |  |  |  |
| C[C@@H]1CN(c2ncnc3c2c(N2CCC2)cn3-c2cccc(Cl)c2)[C@@H](C)CN1C(=O)C(C)(C)C [Compound 220, 1-((2R,5S)-4-(5-(azetidin-1-yl)-7-(3-chlorophenyl)-7H-pyrrolo[2,3-d]pyrimidin-4-yl)-2,5-dimethylpiperazin-1-yl)-2,2-dimethylpropan-1-one] |  |  |  | < 100 | 100 to 500 | < 100 |
| CC(C)C(=O)N1CCN(c2ncnc3c2c(-c2ccccc2F)cn3-c2cc(C#N)ccn2)[C@@H](C)C1 [Compound 102, (S)-2-(5-(2-fluorophenyl)-4-(4-isobutyryl-2-methylpiperazin-1-yl)-7H-pyrrolo[2,3-d]pyrimidin-7-yl)isonicotinonitrile] | < 100 | 100 to 500 | < 100 |  |  |  |
| C[C@H]1CN(C(=O)C2(F)CC2)CCN1c1ncnc2c1c(-c1ccccc1F)cn2-c1cc(C#N)ccn1 [Compound 115, (S)-2-(4-(4-(1-fluorocyclopropane-1-carbonyl)-2-methylpiperazin-1-yl)-5-(2-fluorophenyl)-7H-pyrrolo[2,3-d]pyrimidin-7-yl)isonicotinonitrile] | < 100 | < 100 | < 100 |  |  |  |
